Reference: ChEMBL document CHEMBL2346516, “Sponge-derived acetylenic alcohols, petrosiols, inhibit proliferation and migration of platelet-derived growth factor (PDGF)-induced vascular smooth muscle cells” (Bioorg Med Chem, 2013)
Calls of active or inactive are those of the source. No cut-off for these calls is given here.

How the values were obtained:
[1] = target: Platelet-derived growth factor receptor beta (Homo sapiens) (UniProt P09619); assay: Inhibition of PDGFRbeta in human HASMC assessed as decrease in PDGF-induced ERK1/2 phosphorylation at 1 to 4 uM after 5 to 15 mins by Western blot analysis
Chain of Platelet-derived growth factor receptor beta (Homo sapiens) (P09619 whole entry): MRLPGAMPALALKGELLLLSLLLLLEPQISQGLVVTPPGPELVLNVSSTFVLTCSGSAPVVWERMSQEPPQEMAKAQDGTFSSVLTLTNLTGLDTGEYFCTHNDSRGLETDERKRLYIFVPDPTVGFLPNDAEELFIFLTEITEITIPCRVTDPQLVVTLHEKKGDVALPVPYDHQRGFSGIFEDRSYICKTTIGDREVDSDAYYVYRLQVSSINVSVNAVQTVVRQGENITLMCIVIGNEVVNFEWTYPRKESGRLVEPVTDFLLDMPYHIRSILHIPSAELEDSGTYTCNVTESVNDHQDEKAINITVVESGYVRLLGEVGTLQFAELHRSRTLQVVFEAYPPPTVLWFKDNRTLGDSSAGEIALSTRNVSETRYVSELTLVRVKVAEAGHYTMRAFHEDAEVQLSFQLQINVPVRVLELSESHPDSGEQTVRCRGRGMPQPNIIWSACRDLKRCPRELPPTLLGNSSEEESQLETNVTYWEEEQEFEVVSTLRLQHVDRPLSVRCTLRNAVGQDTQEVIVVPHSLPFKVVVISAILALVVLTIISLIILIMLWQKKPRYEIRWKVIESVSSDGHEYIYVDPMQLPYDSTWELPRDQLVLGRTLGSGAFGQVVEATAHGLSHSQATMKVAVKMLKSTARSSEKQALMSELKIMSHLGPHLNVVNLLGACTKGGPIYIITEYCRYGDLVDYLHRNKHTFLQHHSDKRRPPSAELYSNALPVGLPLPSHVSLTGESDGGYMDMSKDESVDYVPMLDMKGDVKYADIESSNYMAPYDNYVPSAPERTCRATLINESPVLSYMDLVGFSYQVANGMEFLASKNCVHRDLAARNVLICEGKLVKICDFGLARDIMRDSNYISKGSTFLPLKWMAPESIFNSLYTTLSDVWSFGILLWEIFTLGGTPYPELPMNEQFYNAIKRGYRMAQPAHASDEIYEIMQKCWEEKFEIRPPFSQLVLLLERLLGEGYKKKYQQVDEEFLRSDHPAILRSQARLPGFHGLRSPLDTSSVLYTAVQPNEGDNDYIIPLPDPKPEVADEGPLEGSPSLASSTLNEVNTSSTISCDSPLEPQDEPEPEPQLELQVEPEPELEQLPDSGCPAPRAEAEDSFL

[2] = tested on: HASMC; assay: Cytotoxicity against human HASMC assessed as effect on cell vaibility at 0.5 to 4 uM after 24 hrs by MTT assay; format: cell-based
[3] = tested on: HASMC; assay: Inhibition of PDGF-induced CDK4 expression in human HASMC at 2 to 4 uM after 24 hrs by Western blot analysis; format: functional, cell-based
[4] = tested on: HASMC; assay: Inhibition of PDGF-induced human HASMC migration at 4 uM after 24 hrs by modified boyden chamber analysis; format: functional, cell-based
[5] = tested on: HASMC; assay: Inhibition of PDGF-induced CDK2 expression in human HASMC at 2 to 4 uM after 24 hrs by Western blot analysis; format: functional, cell-based
[6] = tested on: HASMC; assay: Cytotoxicity against human HASMC assessed as effect on cell migration at 4 uM after 24 hrs by modified boyden chamber analysis; format: cell-based
[7] = tested on: HASMC; assay: Increase in p21 expression in PDGF-stimulated human HASMC at 2 to 4 uM after 24 hrs by Western blot analysis; format: functional, cell-based
[8] = tested on: HASMC; assay: Cell cycle arrest in PGDF-stimulated human HASMC assessed as proportion of cells in S phase at 2 uM treated for 6 hrs prior to incubation with PDGF measured after 24 hrs by propidium iodide staining based flow cytometry (reference value: 20.8%); format: functional
[9] = target: Platelet-derived growth factor receptor beta (Homo sapiens) (UniProt P09619); assay: Inhibition of PDGFRbeta in human HASMC assessed as decrease in PDGF-induced Akt phosphorylation at 1 to 4 uM after 5 to 15 mins by Western blot analysis
[10] = tested on: HASMC; assay: Inhibition of PDGF-induced cyclin D1 expression in human HASMC at 2 to 4 uM after 24 hrs by Western blot analysis; format: functional, cell-based
[11] = tested on: HASMC; assay: Inhibition of PDGF-induced cyclin E expression in human HASMC at 2 to 4 uM after 24 hrs by Western blot analysis; format: functional, cell-based
[12] = tested on: HASMC; assay: Inhibition of PDGF-induced DNA synthesis in human HASMC assessed as decrease in [3H]thymidine incorporation after 20 hrs by microplate scintillation analysis; format: functional, cell-based
[13] = tested on: HASMC; assay: Cell cycle arrest in PGDF-stimulated human HASMC assessed as proportion of cells in S phase at 4 uM treated for 6 hrs prior to incubation with PDGF measured after 24 hrs by propidium iodide staining based flow cytometry (reference value: 20.8%); format: functional
[14] = tested on: HASMC; assay: Increase in p27 expression in PDGF-stimulated human HASMC at 2 to 4 uM after 24 hrs by Western blot analysis; format: functional, cell-based
[15] = target: Platelet-derived growth factor receptor beta (Homo sapiens) (UniProt P09619); assay: Inhibition of PDGFRbeta in human HASMC assessed as decrease in PDGF-induced PLC-gamma1 phosphorylation at 1 to 4 uM after 5 to 15 mins by Western blot analysis
[16] = tested on: HASMC; assay: Inhibition of PDGF-induced actin filament dissociation in human HASMC at 2 to 4 uM after 24 hrs by Rhodamine-Phalloidin staining based fluorescence microscopy; format: functional, cell-based
[17] = tested on: HASMC; assay: Inhibition of PDGF-induced human HASMC proliferation after 24 hrs by trypan blue dye exclusion assay; format: functional, cell-based
[18] = tested on: HASMC; assay: Cell cycle arrest in PGDF-stimulated human HASMC assessed as proportion of cells in S phase at 1 uM treated for 6 hrs prior to incubation with PDGF measured after 24 hrs by propidium iodide staining based flow cytometry (reference value: 20.8%); format: functional
[19] = target: Platelet-derived growth factor receptor beta (Homo sapiens) (UniProt P09619); assay: Inhibition of PDGF-induced PDGFRbeta phosphorylation in human HASMC after 5 to 15 mins by Western blot analysis

SMILES: CCCCCCCC/C=C\CCCCCCC[C@H](O)[C@@H](O)[C@H](O)C#CC#CCO [PETROSIOL A]
- inhibition [1]: Active
- Activity [2]: Non-toxic
- inhibition [3]: Active
- inhibition [4]: Active
- inhibition [5]: Active
- Activity [6]: Non-toxic
- Activity [7]: Active
- Activity [8]: 10.1%
- inhibition [9]: Active
- inhibition [10]: Active
- inhibition [11]: Active
- IC50 [12]: 730 nM
- inhibition [12]: Dose-dependent effect
- Activity [13]: 7.5%
- Activity [14]: Active
- inhibition [15]: Active
- inhibition [16]: Active
- IC50 [17]: 1000 nM
- inhibition [17]: Dose-dependent effect
- Activity [18]: 17.7%
- inhibition [19]: Dose-dependent effect

SMILES: CC(C)CCCCCC/C=C\CCCCCCC[C@H](O)[C@@H](O)[C@H](O)C#CC#CCO [PETROSIOL B]
- IC50 [12]: 710 nM
- inhibition [12]: Dose-dependent effect

SMILES: C#C/C=C\CCCCCCCCCC/C=C\CCCCCCC[C@H](O)[C@@H](O)[C@H](O)C#CC#CCO [PETROSIOL C]
- IC50 [12]: 720 nM
- inhibition [12]: Dose-dependent effect

SMILES: CCCCCCCCC/C=C\CCCCCCC[C@H](O)[C@@H](O)[C@H](O)C#CC#CCO [PETROSIOL D]
- IC50 [12]: 690 nM
- inhibition [12]: Dose-dependent effect

SMILES: CC(C)CCCCCC/C=C\CCCCCCCCC[C@@H](O)C#CC#CCO [STRONGYLODIOL C]
- IC50 [12]: 1100 nM
- inhibition [12]: Dose-dependent effect

SMILES: CC(C)CCCCCCC#CCCCCCCCCC[C@@H](O)C#CC#CCO [STRONGYLODIOL D]
- IC50 [12]: 2200 nM
- inhibition [12]: Dose-dependent effect
